Patent US9987243B2, “Use of trans-palmitoleate in identifying and treating metabolic disease” (Trustees of Tufts College, priority 2010, dated 2018)
Marks after values point to notes of the source that are not given here.

How the values were obtained:
[1] = tested on: 3,736 U.S. men and women in the Cardiovascular Health Study; assay: Cardiovascular Health Study: multivariable-adjusted relationships of plasma phospholipid trans-palmitoleate with metabolic risk factors; format: in vivo, human; settings: for BMI / Blood Pressure: Diastolic / Blood Pressure: Systolic / Fasting insulin / HOMA-IR / Total/HDL-C ratio / Waist circumference: adjusted mean
Procedure: The present inventors investigated relationships of circulating trans-palmitoleate levels with metabolic risk and incident diabetes mellitus among 3,736 U.S. men and women in the prospective Cardiovascular Health Study. Plasma phospholipid fatty acids, anthropometry, blood lipids, inflammatory markers, and glucose-insulin levels were measured at baseline using standardized methods. Independent determinants of trans-palmitoleate and relationships of trans-palmitoleate with metabolic risk factors were investigated using multivariable-adjusted linear regression. Relationships with incident diabetes (304 incident cases) were investigated using Cox proportional-hazards. Validation for metabolic risk factors was performed in a second independent cohort of 327 generally healthy women.
CHS design and recruitment have been described. Fried et al., 1 Ann. Epidemiol. 263 (1991). Briefly, 5,201 ambulatory, non-institutionalized adults age ≥65 were selected randomly and then enrolled in 1989 to 1990 from Medicare eligibility lists in 4 U.S. communities (Forsyth County, NC; Sacramento County, CA; Washington County, MD.; Allegheny County, PA); an additional 687 black participants were recruited similarly and enrolled in 1992. Among all eligible adults contacted, 57% agreed to enroll. Baseline in-clinic evaluations included standardized physical examination, diagnostic testing, laboratory evaluation, and questionnaires on health status, medical history, and cardiovascular and lifestyle risk factors. Each center's institutional review committee approved the study; all participants provided informed written consent.
Plasma phospholipid fatty acids were measured in 3,736 individuals using 1992 blood samples, considered to be the baseline for all present analyses. This included 3,238 participants randomly selected from individuals with available blood samples in 1992 and an additional 498 participants from a prior case-control study of myocardial infarction. All analyses accounted for this within-cohort sampling using inverse-probability-of-sampling weights. Plasma phospholipids were selected as an excellent marker of longer-term (4-8 week) circulating fatty acids, with similar responses as levels in erythrocyte membranes. Blood was drawn after a 12-hr fast, stored (−70° C.), and shipped on dry ice for long-term centralized storage (−80° C.). Under these conditions plasma phospholipid fatty acids are stable long-term, and in prior studies we observed no degradation, lipolysis, or oxidation after 10 years storage. Measurements were performed at the Fred Hutchinson Cancer Research Center, providing quantitative measurement of 45 fatty acids as percent of total fatty acids. Total lipids were extracted from plasma using methods of Folch, and phospholipids separated from neutral lipids by one-dimensional TLC. Fatty-acid-methyl-ester (FAME) samples were prepared by direct transesterification using methods of Lepage and separated using gas chromatography (Agilent5890 gas-chromatograph-FID-detector; Supelco fused-silica 100 m capillary column SP-2560; initial 160° C. 16 min, ramp 3.0° C./min to 240° C., hold 15 min). Identification, precision, and accuracy were continuously evaluated using model mixtures of known FAMEs and established in-house controls, with identification confirmed by GC-MS at USDA (Peoria, Ill.) or for trans-fats by silver-ion TLC. CVs were 2.5% for trans-palmitoleate and <3% for most fatty acids.
At study-clinic examinations, risk factors were measured by trained personnel. Fried et al., 1991. Anthropometric measures including weight, height, and waist circumference were collected using standard procedures and used to calculate body mass index (BMI). Fasting total cholesterol, HDL-C, and triglycerides were measured according to CDC methods. LDL-C was calculated according to Friedewald equation, excluding individuals with hypertriglyceridemia. […]

C2C12 myotubes = assay: Glucose uptake assay in differentiated C2C12 myotubes; format: cell-based; settings: 0.25 mM for 6 hr, values only in FIG. 1
Procedure: FIG. 1 is a bar graph showing data from differentiated C2C12 myotubes that were incubated with control medium, or medium with 0.25 mM palmitate (C16) or trans-16:1n7-palmitoleate for 6 hours; glucose uptake was assayed as described herein.
C2C12 myoblasts were maintained in 20% fetal bovine serum. To differentiate the myoblasts, cells were plated in 12-well plates coated with 0.2% gelatin and medium changed to 2% horse serum upon confluence. Five days post-differentiation, C2C12 myotubes were incubated in serum-free medium with 0.5% bovine serum albumin (Sigma) and indicated fatty acids at a final concentration of 0.25 mM for 6 hr. Glucose uptake assay was performed as described previously, with modifications. Somwar et al., 276 J. Biol. Chem. 46079 (2001). Briefly, cells were washed twice with 500 μl warm Krebs-Ringer-Hepes (KRH) buffer and 1 ml of KRH buffer was added into each wells. ^3H 2-D-Glucose (0.5 μCi/well) was added and cells were kept in incubator for 10 min. Medium was then removed and cells washed twice with ice-cold KRH buffer. Cells were plated on ice and lysed in 500 μl 0.1% SDS. Aliquots of 400 μl cell lysate were used for scintillation counting and protein assay quantification assay was performed on the rest of cell lysate.

[2] = across quintiles, further adjusted for adiposity
[3] = across quintiles, multivariable-adjusted
[4] = quintile I (median 0.13% of total fatty acids)
[5] = quintile II (median 0.16% of total fatty acids)
[6] = quintile III (median 0.18% of total fatty acids)
[7] = quintile IV (median 0.21% of total fatty acids)
[8] = quintile V (median 0.25% of total fatty acids)

## CCCCCC/C=C/CCCCCCCC(=O)O [trans-palmitoleate, trans-C16:1n7-palmitoleic acid]
[1]; P=0.006, limited to lower levels in the lowest quintile only
  association with fibrinogen: higher fibrinogen
[1]; [2]
  difference in CRP across quintiles: −13.8%
  difference in HDL-C across quintiles: +1.9%
  difference in fasting insulin across quintiles: −13.3%
  difference in insulin resistance assessed by HOMA-IR across quintiles: −16.7%
  difference in total:HDL-C ratio across quintiles: −4.7%
  difference in triglycerides across quintiles: −19.0%
[1]; [3]
  difference in BMI across quintiles: −1.8%
  difference in waist circumference across quintiles: −1.8%
[1]; multivariable-adjusted
  association with LDL-C, fasting glucose, or BP: not associated
[1]; [4]
  BMI: 26.7 kg/m^2
  Blood Pressure: Diastolic: 71 mmHg
  Blood Pressure: Systolic: 137 mmHg
  Fasting insulin: 11.3 mU/l
  HOMA-IR: 3.0 units
  Total/HDL-C ratio: 4.3
  Waist circumference: 97.7 cm
[1]; [5]
  BMI: 27.0 kg/m^2
  Blood Pressure: Diastolic: 71 mmHg
  Blood Pressure: Systolic: 136 mmHg
  Fasting insulin: 11.0 mU/l
  HOMA-IR: 2.9 units
  Total/HDL-C ratio: 4.3
  Waist circumference: 98.4 cm
[1]; [6]
  BMI: 26.8 kg/m^2
  Blood Pressure: Diastolic: 70 mmHg
  Blood Pressure: Systolic: 136 mmHg
  Fasting insulin: 10.7 mU/l
  HOMA-IR: 2.8* units
  Total/HDL-C ratio: 4.2
  Waist circumference: 97.2 cm
[1]; [7]
  BMI: 26.9 kg/m^2
  Blood Pressure: Diastolic: 71 mmHg
  Blood Pressure: Systolic: 136 mmHg
  Fasting insulin: 10.2† mU/l
  HOMA-IR: 2.7† units
  Total/HDL-C ratio: 4.1†
  Waist circumference: 97.4 cm
[1]; [8]
  BMI: 26.2 kg/m^2
  Blood Pressure: Diastolic: 71 mmHg
  Blood Pressure: Systolic: 136 mmHg
  Fasting insulin: 9.8‡ mU/l
  HOMA-IR: 2.5‡ units
  Total/HDL-C ratio: 4.1†
  Waist circumference: 96.0* cm
C2C12 myotubes
  glucose uptake: Positive Glucose Uptake
